Test [1] addresses Adenosylhomocysteinase (Homo sapiens) (UniProt P23526). Description: Compound was evaluated for inhibition of human placental AdoHcy hydrolase at a concentration of 50 uM.
Test [2] shares this target. Description: Compound was evaluated for inhibition of human placental AdoHcy hydrolase at a concentration of 1.0 uM.
For test [3] the target is unchanged. Description: Compound was evaluated for inhibition of human placental AdoHcy hydrolase at a concentration of 10 uM.
The target is the same in test [4]. Description: Compound was evaluated for inhibition of human placental AdoHcy hydrolase at a concentration of 0.1 uM.
For test [5] the target is unchanged. Description: Compound was evaluated for inhibition of human placental AdoHcy hydrolase at a concentration of 100 uM.

Sequence of Adenosylhomocysteinase (Homo sapiens) (P23526 2-432 limits assumed): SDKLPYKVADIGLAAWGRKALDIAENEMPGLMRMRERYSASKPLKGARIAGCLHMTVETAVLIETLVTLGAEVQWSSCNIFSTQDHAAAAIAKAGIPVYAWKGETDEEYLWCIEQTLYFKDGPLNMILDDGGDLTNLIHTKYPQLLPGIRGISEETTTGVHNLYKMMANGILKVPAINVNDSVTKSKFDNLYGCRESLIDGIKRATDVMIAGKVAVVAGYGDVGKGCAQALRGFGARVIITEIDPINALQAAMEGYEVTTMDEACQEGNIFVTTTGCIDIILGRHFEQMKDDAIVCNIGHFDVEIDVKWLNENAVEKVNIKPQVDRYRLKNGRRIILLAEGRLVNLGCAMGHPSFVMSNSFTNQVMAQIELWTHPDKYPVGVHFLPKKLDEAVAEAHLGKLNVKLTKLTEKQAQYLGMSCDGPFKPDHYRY

On to `Nc1ncnc2c1ncn2C1O[C@H](CC=C(Br)Br)[C@@H](O)[C@H]1O` (stereo not given in full), for which the Enzyme activity in test [1] was 5%; in test [2], 48.5%; in test [3], 17.1%; in test [4] it was 87.5%; in test [5], 4%.

`C#CC[C@H]1OC(n2cnc3c(N)ncnc32)[C@H](O)[C@@H]1O` (stereo not given in full): the Enzyme activity came out at 14.3% in test [1]; 73.4% in test [2]; 38.9% in test [3]; 98.3% in test [4]; 8% in test [5].

For `Nc1ncnc2c1ncn2C1O[C@H](C/C=C(/F)Br)[C@@H](O)[C@H]1O` (stereo not given in full), the Enzyme activity in test [1] came to 9.7%; in test [2], 87.4%; in test [3], 37.4%; in test [4], 90.6%; in test [5] it was 5.8%.
